From patent US20240277795A1, “INHIBITORS OF CYSTEINE PROTEASES AND METHODS OF USE THEREOF” (Pardes Biosciences, Inc., priority 2021, published 2024)
Like-named read-outs stand apart in the source and are kept apart here.

Experiments:
[1] = molecular target: 229E Mpro (Human coronavirus 229E, UniProt P0C6X1); assay: 229E Mpro enzymatic assay; assay type: biochemical, HCoV 229E; details: Table 3
[2] = molecular target: SARS-COV2 Mpro (Severe acute respiratory syndrome coronavirus 2, UniProt P0DTD1); assay: COVID-19 (nCoV-2019, SARS-CoV2) Mpro enzymatic assay; assay type: biochemical
[3] = molecular target: OC43 Mpro (Human coronavirus OC43, UniProt P0C6X6); assay: OC43 Mpro enzymatic assay; assay type: biochemical, HCoV OC43; details: Table 3
OC43 Mpro, sequence (P0C6X6 3247-3549): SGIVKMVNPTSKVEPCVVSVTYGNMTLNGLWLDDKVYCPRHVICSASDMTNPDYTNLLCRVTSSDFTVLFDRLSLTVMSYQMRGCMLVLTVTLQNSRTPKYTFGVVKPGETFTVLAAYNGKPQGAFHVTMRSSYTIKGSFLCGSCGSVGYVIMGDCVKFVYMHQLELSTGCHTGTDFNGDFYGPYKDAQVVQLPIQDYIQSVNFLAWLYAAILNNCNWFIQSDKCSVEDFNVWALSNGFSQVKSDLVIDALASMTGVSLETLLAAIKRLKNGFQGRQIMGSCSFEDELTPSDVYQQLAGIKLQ

[4] = tested on: HCoV 229E; assay: HCoV 229E cytopathic effect (CPE) assay; assay type: cell-based; details: Table 4; CellTiter Glo; read-out: 229E CPE EC50
Protocol: (§1) Compounds were assayed using standard methods against multiple coronaviral strains, including HCoV 229E and OC43 strains. The antiviral activity of compounds was calculated based on the protection of the virus-induced CPE at each concentration normalized by the virus control.
(§2) Reagents and instruments used in this assay include luminescent cell viability assay kit CellTiter Glo (Promega) and Microplate Reader Synergy2 (BioTek).
Cytopathic effect (CPE) was measured by CellTiter Glo following the manufacturer's manual. The antiviral activity of compounds was calculated based on the protection of the virus-induced CPE at each concentration normalized by the virus control.
(§3) The cytotoxicity of compounds was assessed under the same conditions, but without virus infection, in parallel. Cell viability was measured with CellTiter Glo. The antiviral activity and cytotoxicity of compounds were expressed as % Inhibition and % Viability, respectively, and calculated with formulas.

[5] = tested on: HCov OC43; assay: HCoV OC43 cytopathic effect (CPE) assay; assay type: cell-based; details: Table 4, CellTiter Glo
Protocol: as §1, §2
Reference compound used was remdesivir; detection reagent: CellTiter Glo.) The CPE were measured by CellTiter Glo following the manufacturer's manual. The antiviral activity of compounds was calculated based on the protection of the virus-induced CPE at each concentration normalized by the virus control.
as §3

[6] = tested on: SARS-CoV-2 WT replicon in Huh7 cells; assay: microbe, parasite or virus in culture; assay type: cell-based; details: Severe acute respiratory syndrome coronavirus 2, Huh-7, 24 h

229E Mpro, sequence (P0C6X1 2966-3267): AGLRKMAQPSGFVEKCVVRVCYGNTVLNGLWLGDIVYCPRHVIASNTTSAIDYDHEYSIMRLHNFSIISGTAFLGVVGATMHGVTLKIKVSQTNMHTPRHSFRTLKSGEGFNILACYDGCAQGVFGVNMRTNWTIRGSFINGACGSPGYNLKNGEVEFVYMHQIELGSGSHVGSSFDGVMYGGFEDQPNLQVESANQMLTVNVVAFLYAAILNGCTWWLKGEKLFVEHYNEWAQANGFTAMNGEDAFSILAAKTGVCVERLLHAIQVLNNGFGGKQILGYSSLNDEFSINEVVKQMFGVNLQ

| SMILES | IC50 [1] [µM] | IC50 ([2]; read-out: COVID-19 Mpro IC50, Table 3) [µM] | IC50 [3] [µM] | EC50 [4] [µM] | EC50 [5] [µM] | IC50 [2] [µM] | EC50 ([5]; Betacoronavirus 1, OC43) [µM] | EC50 [6] [µM] |
| --- | --- | --- | --- | --- | --- | --- | --- | --- |
| CC(C)(C)[C@H](NC(=O)c1cnccn1)C(=O)N1C[C@H]2[C@@H]([C@H]1C(=O)N[C@H](C#N)C[C@@H]1CCNC1=O)C2(C)C (single isomer, unassigned) [101 Isomer 2] | < 2 | < 2 | < 2 | 2 to 10 | < 2 |  |  |  |
| Cc1cc(C(=O)N[C@@H](Cc2cccc3ccccc23)C(=O)N[C@@H](CC2CC2)C(=O)N[C@H](C#N)C[C@@H]2CCCNC2=O)no1 [Compound 111, N—((S)-1-(((S)-1-(((S)-1-cyano-2-((S)-2-oxopiperidin-3-yl)ethyl)amino)-3-cyclopropyl-1-oxopropan-2-yl)amino)-3-(naphthalen-1-yl)-1-oxopropan-2-yl)-5-methylisoxazole-3-carboxamide] | < 2 |  | < 2 | 10 to 30 |  | 2 to 10 | 2 to 10 |  |
| Cc1cc(C(=O)N[C@@H](Cc2ccc(F)cc2)C(=O)N[C@@H](CC(C)C)C(=O)N[C@H](C#N)C[C@@H]2CCCNC2=O)no1 [Compound 113, N—((S)-1-(((S)-1-(((S)-1-cyano-2-((S)-2-oxopiperidin-3-yl)ethyl)amino)-4-methyl-1-oxopentan-2-yl)amino)-3-(4-tluorophenyl)-1-oxopropan-2-yl)-5-methylisoxazole-3-carboxamide] | < 2 |  | < 2 | 2 to 10 |  | < 2 | 2 to 10 |  |
| N#C[C@H](C[C@@H]1CCCNC1=O)NC(=O)[C@H](CC1CC1)NC(=O)[C@H](Cc1cccc2ccccc12)NC(=O)c1cnccn1 [Compound 115, N—((S)-1-(((S)-1-(((S)-1-cyano-2-((S)-2-oxopiperidin-3-yl)ethyl)amino)-3-cyclopropyl-1-oxopropan-2-yl)amino)-3-(naphthalen-1-yl)-1-oxopropan-2-yl)pyrazine-2-carboxamide] | < 2 |  | < 2 | 2 to 10 |  | 2 to 10 | 2 to 10 |  |
| N#C[C@H](C[C@@H]1CCCNC1=O)NC(=O)[C@H](CC1CC1)NC(=O)[C@H](Cc1cccc2ccccc12)NC(=O)OCc1ccccc1 [Compound 116, Benzyl((S)-1-(((S)-1-(((S)-1-cyano-2-((S)-2-oxopiperidin-3-yl)ethyl)amino)-3-cyclopropyl-1-oxopropan-2-yl)amino)-3-(naphthalen-1-yl)-1-oxopropan-2-yl)carbamate] | < 2 |  | < 2 | 2 to 10 |  | < 2 | < 2 |  |
| CC1(C)C[C@@H](C[C@@H](C#N)NC(=O)[C@H](CC2CC2)NC(=O)[C@H](Cc2cccc3ccccc23)NC(=O)c2cnccn2)C(=O)N1 [Compound 118, N—((S)-1-(((S)-1-(((S)-1-cyano-2-((R)-5,5-dimethyl-2-oxopyrrolidin-3-yl)ethyl)amino)-3-cyclopropyl-1-oxopropan-2-yl)amino)-3-(naphthalen-1-yl)-1-oxopropan-2-yl)pyrazine-2-carboxamide] | < 2 |  | < 2 | 2 to 10 |  | 2 to 10 | 2 to 10 |  |
| N#C[C@H](C[C@@H]1CCNC1=O)NC(=O)[C@H](CC1CC1)NC(=O)[C@H](Cc1cccc2ccccc12)NC(=O)c1cnccn1 [Compound 119, N—((S)-1-(((S)-1-(((S)-1-cyano-2-((S)-2-oxopyrrolidin-3-yl)ethyl)amino)-3-cyclopropyl-1-oxopropan-2-yl)amino)-3-(naphthalen-1-yl)-1-oxopropan-2-yl)pyrazine-2-carboxamide] | < 2 |  | < 2 | 10 to 30 |  | 2 to 10 | 2 to 10 |  |
| Cc1cc(C(=O)N[C@@H](Cc2cccc3ccccc23)C(=O)N[C@@H](CC2CC2)C(=O)N[C@H](C#N)C[C@@H]2CC(C)(C)NC2=O)no1 [Compound 120, N—((S)-1-(((S)-1-(((S)-1-cyano-2-((R)-5,5-dimethyl-2-oxopyrrolidin-3-yl)ethyl)amino)-3-cyclopropyl-1-oxopropan-2-yl)amino)-3-(naphthalen-1-yl)-1-oxopropan-2-yl)-5-methylisoxazole-3-carboxamide] | < 2 |  | < 2 | 2 to 10 |  | 2 to 10 | < 2 |  |
| Cc1cc(C(=O)N[C@@H](Cc2cccc3ccccc23)C(=O)N[C@@H](CC2CC2)C(=O)N[C@H](C#N)C[C@@H]2CCNC2=O)no1 [Compound 121, N—((S)-1-(((S)-1-(((S)-1-cyano-2-((S)-2-oxopyrrolidin-3-yl)ethyl)amino)-3-cyclopropyl-1-oxopropan-2-yl)amino)-3-(naphthalen-1-yl)-1-oxopropan-2-yl)-5-methylisoxazole-3-carboxamide] | < 2 |  | < 2 | 2 to 10 |  | 2 to 10 | 2 to 10 |  |
| N#C[C@H](C[C@@H]1CCCNC1=O)NC(=O)[C@H](CC1CC1)NC(=O)[C@H](Cc1ccc(F)cc1)NC(=O)OCc1ccccc1 [Compound 123] | < 2 |  | 2 to 10 | 10 to 30 |  | 10 to 30 | 10 to 30 |  |
| N#C[C@H](C[C@@H]1CCNC1=O)NC(=O)C(CC1CCC(F)(F)CC1)NC(=O)[C@H](Cc1cccc2ccccc12)NC(=O)OCc1ccccc1 (stereo partly drawn) [Compound 128, benzylN-[(1S)-2-[[2-[[(1S)-1-cyano-2-[(3S)-2-oxopyrrolidin-3-yl]ethyl]amino]-1-[(4,4-difluorocyclohexyl)methyl]-2-oxo-ethyl]amino]-1-(1-naphthylmethyl)-2-oxo-ethyl]carbamate] | < 2 |  | < 2 | < 2 |  | < 2 | < 2 |  |
| C[C@@H](OC1(C)CCC1)[C@H](NC(=O)C(F)(F)F)C(=O)N1C[C@H]2[C@@H]([C@H]1C(=O)N[C@H](C#N)C[C@@H]1CCCNC1=O)C2(C)C [Compound 376] |  |  |  |  |  |  |  | < 2 |
| CC1(C)[C@@H]2[C@@H](C(=O)N[C@H](C#N)C[C@@H]3CCCNC3=O)N(C(=O)[C@@H](NC(=O)C(F)(F)F)C3CC3)C[C@@H]21 [Compound 377] |  |  |  |  |  |  |  | < 2 |
| C[C@@H](OC1CC1)[C@H](NC(=O)C(F)(F)F)C(=O)N1C[C@H]2[C@@H]([C@H]1C(=O)N[C@H](C#N)C[C@@H]1CCCNC1=O)C2(C)C [Compound 378] |  |  |  |  |  |  |  | < 2 |
